Tests used:
[1] = Vapour sorption analysis (GVS, hygroscopicity); assay type: physicochemical; settings: % uptake at 90% RH; succinate
Experimental: Approximately 10 mg of the sample was placed into a mesh vapor sorption balance pan and loaded into an IGASorp Moisture Sorption Analyzer balance by Hiden Analytical. The sample was subjected to a ramping profile from 40 to 90% relative humidity (RH) at 10% increments to 90% RH, maintaining the sample at each step until a stable weight had been achieved (98% step completion). After completion of the sorption cycle, the sample was dried using the same procedure (initially from 90% RH to 0% RH and finally taken back to the starting point of 40% RH). The sorption/desorption profiles were then repeated to give a double-cycle plot. The weight changes during the sorption/desorption cycles were plotted, allowing for the hygroscopic nature of the sample to be determined.

[2] = Stability stress testing (ambient light, 40° C./75% RH, 80° C., 7 days; XRPD and HPLC purity); assay type: physicochemical
Experimental: Approximately 5 mg of the appropriate samples were placed into 2 mL clear glass vials and the vials were all stored open under the conditions of ambient light, 40° C./75% RH, and 80° C. for 7 days, respectively. The ambient light sample was left open on the bench at room temperature. The 80° C. sample was placed open into an 80° C. oven.

[3] = tested on: advanced NSCLC (EGFR exon 20 insertions); assay: Phase 1/2 study, antitumor activity / disease assessment by RECIST v1.1; assay type: in vivo, human; settings: 160 mg QD
Experimental: 52 patients were enrolled as of 30 Jan. 2018.
Disease stabilization started to be reported at the 40 mg QD cohort. Disease assessments for patients who had at least one disease assessment following treatment with Compound (A) are shown in Table 21. All patients who responded have EGFR exon 20 insertion mutations and had previously been treated with platinum-based chemotherapy, EGFR TKIs, or PD-1 inhibitors.

[4] = Phase 1/2 study, safety (adverse events, dose limiting toxicities, MTD); settings: human, in vivo
Experimental: Patients with advanced NSCLC refractory to standard therapy received daily oral doses (5-120 mg) of Compound (A) in the dose-escalation phase. Compound (A) was provided as polymorphic Form-I of the succinate salt of Compound (A). Compound (A) was formulated as a drug-in-capsule with no excipients and administered orally. Preliminary antitumor activity (by RECIST v1.1), safety and pharmacokinetics are reported for patients receiving at least one dose.
As part of the same phase ½ study as described in Example 12, a dose escalation study was performed. […] 2018.
The phase 2 portion of the study was initiated to expand the study in two 160 mg QD cohorts (EGFR exon 20 mutant NSCLC patients with or without brain metastases) and continue to enroll more patients in the 120 mg cohort.

[5] = Thermodynamic aqueous solubility studies (de-ionized water, 24 h, HPLC concentration, filtrate pH, XRPD of solid)
Experimental: The resulting solid material was isolated by centrifugation and analyzed by XRPD, while the filtrate was analyzed by HPLC for concentration determination. The pH of the resulting filtrate was also determined.

[6] = number of the 26 patients in efficacy analysis

SMILES: C=CC(=O)Nc1cc(Nc2ncc(C(=O)OC(C)C)c(-c3cn(C)c4ccccc34)n2)c(OC)cc1N(C)CCN(C)C [Succinate, isopropyl 2-((5-acrylamido-4-((2-(dimethylamino)ethyl) (methyl)amino)-2-methoxyphenyl)amino)-4-(1-methyl-1H-indol-3-yl)pyrimidine-5-carboxylate succinate]
- GVS (Hygroscopicity) [1]: 1.3%
- XRPD after storage ([2]; 7 days, all storage conditions (ambient light, 40° C./75% RH, 80° C.)): No change under all storage
- Purity, 40° C./75% RH ([2]; HPLC purity after 7 days, open vial, 40° C./75% RH, succinate): 99.6
- Purity, 80° C. ([2]; HPLC purity after 7 days, open vial, 80° C., succinate): 99.6
- Purity, Ambient light ([2]; HPLC purity after 7 days, open vial, ambient light, room temperature, succinate): 99.6
- Input purity ([2]; HPLC purity before stress storage): 99.7
- Chemical Stability ([2]; summary in Table 17): Stable
- overall response rate (ORR) (best response) ([3]; 26 patients with EGFR exon 20 insertion mutations, 95% CI: 33.37%, 73.41%): 53.8%
- disease control rate (DCR) ([3]; 26 patients with EGFR exon 20 insertion mutations, 95% CI: 69.85%, 97.55%): 88.5%
- confirmed partial response (PR) [3, 6]: 7
- unconfirmed PR awaiting confirmation [3, 6]: 6
- patients with any TEAE leading to treatment discontinuation [4]: 18.8%
- patients with at least 1 Grade≥3 TEAE [4]: 58.4%
- patients with at least 1 Grade≥3 TRAE [4]: 29.7%
- patients with at least 1 TEAE [4]: 98.0%
- patients with at least 1 TRAE [4]: 91.1%
- patients with at least 1 treatment-emergent SAE [4]: 35.6%
- patients with at least 1 treatment-related SAE [4]: 10.9%
- solubility at 24 h ([5]; de-ionized water, pH 6.97, water, thermodynamic from solid, Solubility in Water, de-ionized water (pH 6.97), slurry shaken at ambient temperature for 24 h, filtrate by HPLC, salts of Compound (A)): 1900 µg/mL
- pH at Saturation ([5]; pH of filtrate after 24 h slurry in de-ionized water (pH 6.97), ambient temperature, succinate): 5.00

Reference: patent US12084431B2, “Pharmaceutical salts of pyrimidine derivatives and method of treating disorders” (ARIAD Pharmaceuticals, Inc., priority 2018, dated 2024)
